Blank lines part the entries; values can stand above or below the molecule they belong to. Ends that are not written are not given here. Peptide text beside a SMILES is read from it.
Legend:
PS:C4BP complex [1] = molecular target: T1, PS:C4BP complex (Homo sapiens, UniProt P04003+P20851); assay: Peptide Inhibition Assay: binding of b-PS to C4BP in solid phase; conditions: peptide concentration of 800 µM; read-out: percent inhibition of PS:C4BP complex formation
T1 construct: Purified human C4BP was obtained from 5 liters (1) of human citrated plasma; from tissue; host or cells: human citrated plasma (C4BP); protein S per Schwarz et al
T1 sequence (P04003 49-597): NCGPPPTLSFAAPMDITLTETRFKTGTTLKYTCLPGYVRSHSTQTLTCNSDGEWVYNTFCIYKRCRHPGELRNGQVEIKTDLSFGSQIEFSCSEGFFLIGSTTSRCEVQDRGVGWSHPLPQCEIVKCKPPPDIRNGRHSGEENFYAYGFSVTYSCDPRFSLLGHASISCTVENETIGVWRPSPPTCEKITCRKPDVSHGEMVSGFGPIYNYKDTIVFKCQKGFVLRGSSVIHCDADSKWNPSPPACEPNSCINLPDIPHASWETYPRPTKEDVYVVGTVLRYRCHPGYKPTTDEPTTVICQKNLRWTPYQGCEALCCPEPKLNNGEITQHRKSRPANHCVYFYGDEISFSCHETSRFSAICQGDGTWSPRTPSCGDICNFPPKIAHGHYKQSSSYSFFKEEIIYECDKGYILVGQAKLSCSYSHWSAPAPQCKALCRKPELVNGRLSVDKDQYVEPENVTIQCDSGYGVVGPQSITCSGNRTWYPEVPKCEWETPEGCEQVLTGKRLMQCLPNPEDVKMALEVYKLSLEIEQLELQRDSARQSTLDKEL
T1 sequence (P20851 18-252): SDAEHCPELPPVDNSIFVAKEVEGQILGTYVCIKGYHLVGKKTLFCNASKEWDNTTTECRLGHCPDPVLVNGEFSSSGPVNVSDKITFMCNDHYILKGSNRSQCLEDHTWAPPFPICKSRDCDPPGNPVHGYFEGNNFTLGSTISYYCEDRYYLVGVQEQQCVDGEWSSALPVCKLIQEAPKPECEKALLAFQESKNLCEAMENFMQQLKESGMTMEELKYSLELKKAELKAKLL
Experimental: Each of the peptides produced as described in Example 1 and listed in Table 1 was analyzed for its ability to inhibit the binding of native protein S in liquid-phase to C4BP in solid-phase.
Microtiter wells of a 96 well plate were coated with 50 µl of 10 µg/ml purified C4BP in carbonate buffer (0.02 M Na2CO3, pH 9.0, 0.02% Na-Azide). After blocking with 10% BSA in TBS, 50 µl of different concentrations of peptides diluted in washing buffer (TBS, 0.2% BSA, 5mM CaCl, 0.02% Tween 20) were separately admixed to C4BP-coated wells. After 2 hours at room temperature, 50 µl of a solution of biotinylated protein S, were admixed to each well to form a second binding admixture having a final concentration of 2 µg/ml. The plate was agitated and the samples were incubated 1 hour at room temperature. The samples were discarded and the wells were washed 3 times with washing buffer. To each well, 50 µl of strepavidin-alkaline-phosphatase (1 µg/ml washing buffer) were admixed and allowed to incubate for 30 minutes at room temperature. The strepavidin-alkaline-phosphatase was then discarded and the wells were washed 6 times with washing buffer. The resulting optical densities of the reaction solutions were read as described before in Example 2C.
Results of the assay are reported as percent inhibition of C4BP binding. Percent of inhibition of C4BP binding is defined as: I = 100% - 100 x (deltaT /deltaC ) [formula] • where I is expressed as a percent; and • where 100% = delta/min of the amount of b-PS which specifically bound to C4BP-coated wells in the absence of any competing PS-peptide; and • where deltaT = the change in absorbance (405 nm) in the presence of competing PS-peptide; and • where deltaC = the change in absorbance (405 nm) in the absence of competing PS-peptide.

PS:C4BP complex [2] = molecular target: T1, PS:C4BP complex; assay: Peptide inhibition of binding of b-C4BP to PS-coated wells; conditions: b-C4BP 1 µg/ml, PS-coated wells, peptide 0 - 500 µM; for IC90: read-out: IC90; for IC50: read-out: half-maximal inhibitory concentration (IC50)
Experimental: An alternative approach was used to test the ability of the peptides, PSP-loop and PSP-428K, in comparison with that seen with the PSP-12 peptide, in inhibiting the binding of C4BP to PS. For this assay, the microtiter wells were coated with purified PS diluted to a concentration of 10 µg/ml in carbonate-coating buffer as described above. The wells were maintained to allow the PS to bind to the well walls. After the maintenance period, the wells were blocked also as described above. The selected PSP peptides were separately admixed at various concentrations ranging from 0 - 500 µM with biotinylated-C4BP (b-C4BP) at a concentration of 1 µg/ml. The admixtures were maintained on a fluid phase plate for 2 hours at room temperature to form peptide-C4BP complexes.
Fifty µl of the complexed admixtures were separately admixed to the prepared C4BP-coated wells and maintained for 1 hour at room temperature. Thereafter, the plate was washed and processed for developing as described above.

PS:C4BP complex [3] = molecular target: T1, PS:C4BP complex; assay: Fluid-phase peptide inhibition of PS binding to b-C4BP, detected on MAb S-7-coated plates; conditions: b-C4BP 0.5 µg/ml, PS 1.0 µg/ml, peptide 0 - 500 µM
Experimental: An alternative approach was used to test the ability of the peptides, PSP-loop, PSP-424K and PSP-428K, in comparison with that seen with the PSP-12 peptide, in inhibiting the binding of PS to C4BP, the result of which was detected on monoclonal antibody-coated plates. For this assay, biotinylated-C4BP (b-C4BP), PS and PSP peptides were admixed together at the respective concentrations of 0.5 µg/ml, 1.0 µg/ml and at a range of 0 - 500 µM (V:V:V). The admixtures were maintained for 2 hours at room temperature on a fluid phase plate to allow the binding and/or inhibition thereof of PS to C4BP by the PS-derived peptides. After the maintenance period, 50 µl of the admixture were separately admixed to wells previously coated with 10 µg/ml of MAb S-7 (ATCC No. HB 80819). The admixtures were maintained for 1 hour at room temperature to allow for the binding of C4BP to MAb S-7-antibody-coated plates. The binding of biotinylated complexes to the antibody-coated plates was detected as described in Example 5Aii.

C4b binding protein [4] = molecular target: T2, C4b binding protein (human, UniProt P04003 49-597; P20851 18-252); assay: Competition ELISA, peptide 800 µM on coated C4BP, then b-PS
T2 construct: mature; The beta chain is added from general knowledge; Biotinylated (b-C4BP) in some assays; also called C4BP; purified human C4BP
T2 sequence (looked up) 1: T1 sequence (P04003 49-597)
T2 sequence (looked up) 2: T1 sequence (P20851 18-252)

C4b binding protein [5] = molecular target: T2, C4b binding protein; assay: Competition ELISA, peptide preincubated with b-C4BP, PS-coated wells

Molecule: CC[C@H](C)[C@H](NC(=O)CNC(=O)[C@H](CO)NC(=O)[C@H](C)NC(=O)CNC(=O)[C@@H](N)CCC(N)=O)C(=O)N[C@@H](CCCCN)C(=O)N[C@@H](CCC(=O)O)C(N)=O [PSP-417A] (H-QGASGIKE-NH2)
inhibition at 800 µM (PS:C4BP complex [1]): ~80%

Molecule: CC[C@H](C)[C@H](NC(=O)CNC(=O)[C@@H](N)CO)C(=O)N[C@@H](CCCCN)C(=O)N[C@@H](CCC(=O)O)C(=O)N[C@H](C(=O)N[C@H](C(=O)N[C@@H](CCC(N)=O)C(=O)N[C@@H](CCC(=O)O)C(=O)N[C@@H](CCCCN)C(=O)N[C@@H](CCC(N)=O)C(=O)N[C@@H](CC(N)=O)C(=O)N[C@@H](CCCCN)C(=O)N[C@@H](Cc1c[nH]cn1)C(=O)N[C@@H](CS)C(N)=O)[C@@H](C)CC)[C@@H](C)CC [PSP-12] (H-SGIKEIIQEKQNKHC-NH2; N-terminus assumed)
IC50 (PS:C4BP complex [3]): ~50 µM
IC90 (PS:C4BP complex [3]; read-out: IC90): ~250 µM
IC90 (PS:C4BP complex [2]): ~250 µM
IC50 (PS:C4BP complex [2]): ~50 µM
inhibition at 800 µM (PS:C4BP complex [1]): 80%

Molecule: NCCCC[C@H](NC(=O)[C@H](CC(N)=O)NC(=O)[C@H](CCC(N)=O)NC(=O)[C@H](CCCCN)NC(=O)[C@H](CCC(=O)O)NC(=O)[C@@H](N)CCC(N)=O)C(=O)N[C@@H](Cc1c[nH]cn1)C(=O)N[C@@H](CO)C(N)=O [PSP-430*] (H-QEKQNKHS-NH2)
inhibition at 800 µM (PS:C4BP complex [1]): ~80%

Molecule: CC[C@H](C)[C@H](NC(=O)CN)C(=O)N[C@@H](CCCCN)C(=O)N[C@@H](CCC(=O)O)C(=O)N[C@H](C(=O)N[C@H](C(=O)N[C@@H](CCC(N)=O)C(N)=O)[C@@H](C)CC)[C@@H](C)CC [PSP-424, GIKEIIQ] (H-GIKEIIQ-NH2)
inhibition at 800 µM (PS:C4BP complex [1]): 40%

Molecule: CC[C@H](C)[C@H](NC(=O)CNC(=O)[C@H](CO)NC(=O)[C@H](C)NC(=O)CNC(=O)[C@H](CCC(N)=O)NC(=O)[C@H](CCCCN)NC(=O)[C@H](CCSC)NC(=O)[C@H](CC(C)C)NC(=O)[C@@H](N)CC(N)=O)C(=O)N[C@@H](CCCCN)C(=O)N[C@@H](CCC(=O)O)C(N)=O [PSP-417P] (H-NLMKQGASGIKE-NH2)
inhibition at 800 µM (PS:C4BP complex [1]): ~60%

Molecule: CC[C@H](C)[C@H](NC(=O)[C@H](CCC(=O)O)NC(=O)[C@@H](N)CCCCN)C(=O)N[C@H](C(=O)N[C@@H](CCC(N)=O)C(=O)N[C@@H](CCC(=O)O)C(=O)N[C@@H](CCCCN)C(=O)N[C@@H](CCC(N)=O)C(=O)N[C@@H](CC(N)=O)C(=O)N[C@@H](CCCCN)C(=O)N[C@@H](Cc1c[nH]cn1)C(=O)N[C@@H](CO)C(N)=O)[C@@H](C)CC [PSP-428*, KEIIQEKQNKHS] (H-KEIIQEKQNKHS-NH2)
inhibition at 800 µM (PS:C4BP complex [1]): ~60%

Molecule: CC[C@H](C)[C@H](NC(=O)CNC(=O)[C@H](CO)NC(=O)[C@H](C)NC(=O)CNC(=O)[C@H](CCC(N)=O)NC(=O)[C@H](CCCCN)NC(=O)[C@H](CCSC)NC(=O)[C@H](CC(C)C)NC(=O)[C@@H](N)CC(N)=O)C(N)=O [PSP-417] (H-NLMKQGASGI-NH2)
inhibition at 800 µM (PS:C4BP complex [1]): ~60%

Molecule: SGIKEIIQEKQNKHC-NH2 (also: biotinylated form b-PSP-12 also used, also called b-PSP-12 (biotinylated)) [PSP-12]
IC50 (C4b binding protein [5]): ~50 µM
IC90 (C4b binding protein [5]): ~250 µM

Molecule: QGASGIKE-NH2 [PSP-417A]
% inhibition of PS:C4BP complex formation (C4b binding protein [4]): 80%

Molecule: NLMKQGASGI-NH2 [PSP-417]
% inhibition of PS:C4BP complex formation (C4b binding protein [4]): 60%

The next lines start with the values.

IC90 (PS:C4BP complex [2]): ~250 µM
IC50 (PS:C4BP complex [2]): ~50 µM
Molecule: CC[C@H](C)[C@H](NC(=O)CNC(=O)[C@@H](N)CO)C(=O)N[C@@H](CCCCN)C(=O)N[C@@H](CCC(=O)O)C(=O)N[C@H](C(=O)N[C@H](C(=O)N[C@@H](CCC(N)=O)C(=O)N[C@@H](CCCCN)C(=O)N[C@@H](CCCCN)C(=O)N[C@@H](CCC(N)=O)C(=O)N[C@@H](CC(N)=O)C(=O)N[C@@H](CCCCN)C(=O)N[C@@H](CS)C(N)=O)[C@@H](C)CC)[C@@H](C)CC [PSP-428K, SGIKEIIQKKQNKC] (H-SGIKEIIQKKQNKC-NH2)

% inhibition of PS:C4BP complex formation (C4b binding protein [4]): 60%
Molecule: KEIIQEKQNKHS-NH2 [PSP-428*]

% inhibition of PS:C4BP complex formation (C4b binding protein [4]): 40%
Molecule: GIKEIIQ-NH2 [PSP-424]

IC90 (C4b binding protein [5]): ~250 µM
B1: PSP-428K* (peptide)
peptide: SGIKEIIQKKQNKC-NH2
notes: protein S 420-432,434 with a substitution

% inhibition of PS:C4BP complex formation (C4b binding protein [4]): 60%
Molecule: NLMKQGASGIKE-NH2 [PSP-417P]

% inhibition of PS:C4BP complex formation (C4b binding protein [4]): 80%
Molecule: QEKQNKHS-NH2 [PSP-430*]
